Experimental data as given in patent US20180360786A1, “(R)-CARBIDOPA ALONE OR IN COMBINATION WITH A STEROID FOR TREATING PAIN, INFLAMMATION, AN INFLAMMATORY DISEASE, AN IMMUNE OR AUTOIMMUNE DISEASE AND TUMOUR GROWTH” (PROXIMAGEN GROUP LIMITED, priority 2015, published 2018).
Where two headings read alike, the source gives them in different places. Values belong to the compound of their own block, whether it stands above or below them.

Key:
[1] = target: T1, human aromatic L-amino acid decarboxylase (DOPA decarboxylase) (Homo sapiens, UniProt P20711); assay: In vitro determination of human aromatic L-amino acid decarboxylase (DOPA decarboxylase) inhibition; type: biochemical; settings: recombinant human DOPA decarboxylase, 500 μM L-Dopa, 60 min pre-incubation
T1 construct: purchased R&D systems 3564-DC
T1 sequence (P20711 1-480): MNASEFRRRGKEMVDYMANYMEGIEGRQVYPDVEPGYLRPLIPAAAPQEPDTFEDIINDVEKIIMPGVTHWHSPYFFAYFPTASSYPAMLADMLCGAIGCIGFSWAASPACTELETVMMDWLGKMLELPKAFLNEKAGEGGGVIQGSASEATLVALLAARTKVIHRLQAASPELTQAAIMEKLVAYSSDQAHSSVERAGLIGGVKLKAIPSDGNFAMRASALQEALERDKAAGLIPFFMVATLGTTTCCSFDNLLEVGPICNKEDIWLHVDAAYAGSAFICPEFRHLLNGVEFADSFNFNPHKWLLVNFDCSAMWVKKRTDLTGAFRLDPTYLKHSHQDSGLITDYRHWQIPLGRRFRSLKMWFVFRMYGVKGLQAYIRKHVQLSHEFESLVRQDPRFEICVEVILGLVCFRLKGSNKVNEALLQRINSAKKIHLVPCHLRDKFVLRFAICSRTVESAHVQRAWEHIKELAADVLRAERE
Description: The enzyme reaction of human DOPA decarboxylase was carried out according to the manufacture instructions (R&D systems cat#3564-DC). The assay measured the ability of recombinant human DOPA decarboxylase to convert L-Dopa to dopamine. The dopamine product was measured by its absorbance at 340 nm after derivatization with trinitrobenzene sulphuric acid. Briefly, the reaction was carried out in 50 mM HEPES buffer containing 100 mM NaCl pH 7.2 for 30 min and stopped by inactivation of the enzyme at 95° C. for 2 min. The inhibitory assay was performed by measuring the decarboxylase activity of DOPA decarboxylase with 0.8 μg enzyme, 500 μM L-Dopa, and 100 μM pyridoxal phosphate in the presence or absence of a fixed amount of each compound. Test compounds were pre-incubated for 60 min with DOPA decarboxylase before initiating the assay with the addition of the substrate L-DOPA. Dose response curves were generated to determine the concentration required to inhibit 50% of decarboxylase activity (IC50). Compounds were evaluated in duplicate at 7 concentrations. IC50 values were derived by nonlinear regression analysis.

human VAP-1 (SSAO) = target: T2, human VAP-1 (SSAO) (Homo sapiens, UniProt Q16853); assay: In vitro determination of human VAP-1 (SSAO) inhibition (HRP-coupled Amplex Red, benzylamine substrate); type: biochemical; settings: for IC50: purified recombinant human VAP-1 (SSAO), benzylamine 100 μM, room temperature, about 15 min pre-incubation
T2 construct: made in house
T2 sequence (Q16853 29-763 limits assumed): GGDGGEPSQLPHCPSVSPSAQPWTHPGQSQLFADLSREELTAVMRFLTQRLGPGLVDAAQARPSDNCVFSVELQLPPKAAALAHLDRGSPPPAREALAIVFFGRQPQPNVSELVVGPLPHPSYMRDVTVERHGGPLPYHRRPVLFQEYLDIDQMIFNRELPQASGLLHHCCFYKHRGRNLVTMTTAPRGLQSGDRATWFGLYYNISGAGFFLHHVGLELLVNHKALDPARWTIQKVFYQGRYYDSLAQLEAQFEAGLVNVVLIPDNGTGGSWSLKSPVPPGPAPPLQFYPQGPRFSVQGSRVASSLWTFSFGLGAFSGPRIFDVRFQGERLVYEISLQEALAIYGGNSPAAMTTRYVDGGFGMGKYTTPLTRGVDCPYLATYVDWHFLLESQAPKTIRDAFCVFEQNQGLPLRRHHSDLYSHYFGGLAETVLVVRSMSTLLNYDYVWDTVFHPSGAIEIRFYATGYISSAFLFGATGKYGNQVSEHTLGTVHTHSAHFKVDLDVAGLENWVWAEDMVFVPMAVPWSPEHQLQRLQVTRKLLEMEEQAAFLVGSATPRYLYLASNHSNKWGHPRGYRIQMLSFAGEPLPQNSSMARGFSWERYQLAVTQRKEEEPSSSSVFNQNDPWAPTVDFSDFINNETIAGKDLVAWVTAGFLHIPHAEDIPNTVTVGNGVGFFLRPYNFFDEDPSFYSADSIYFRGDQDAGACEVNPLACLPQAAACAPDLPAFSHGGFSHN
Description: This assay is performed at room temperature with purified recombinantly expressed human VAP-1 (SSAO). Enzyme was prepared essentially as described in Ohman et al. (Protein Expression and Purification 46 (2006) 321-331). The enzyme activity is assayed with benzylamine as substrate by utilizing the production of hydrogen peroxide in a horseradish peroxidise (HRP) coupled reaction. Briefly, test compounds are dissolved in dimethyl sulfoxide (DMSO) to a concentration of 10 mM. Dose-response measurements are assayed by either creating 1:10 serial dilutions in DMSO to produce a 7 point curve or by making 1:3 serial dilutions in DMSO to produce 11 point curves. The top concentrations are adjusted depending on the potency of the compounds and subsequent dilution in reaction buffer yielded a final DMSO concentration ≤2%.
In a horseradish peroxidise (HRP) coupled reaction, hydrogen peroxide oxidation of 10-acetyl-3,7-dihydroxyphenoxazine produces resorufin, which is a highly fluorescent compound (Zhout and Panchuk-Voloshina. Analytical Biochemistry 253 (1997) 169-174; AmplexR Red Hydrogen Peroxide/peroxidise Assay kit, Invitrogen A22188). Enzyme and compounds in 50 mM sodium phosphate, pH 7.4 are set to pre-incubate in flat-bottomed microtiter plates for approximately 15 minutes before initiating the reaction by addition of a mixture of HRP, benzylamine and Amplex reagent. Benzylamine concentration is fixed at a concentration corresponding to the Michaelis constant, determined using standard procedures. Fluorescence intensity is then measured at several time points during 1-2 hours, exciting at 544 nm and reading the emission at 590 nm. […] The inhibition is measured as % decrease of the signal compared to a control without inhibitor (only diluted DMSO). […] Data is fitted to a four parameter logistic model and IC50 values are calculated, for example by using the GraphPad Prism 4 or XLfit 4 programs.

CFA induced paw oedema = CFA induced paw oedema in rat, paw volume (plethysmometer); type: in vivo; settings: dosed 24 hours post CFA, 3 hours post treatment
Description: (§1) Assessment of the anti-hyperalgesic properties of (R)-Carbidopa was determined through measurement of weight bearing following CFA induced hypersensitivity. Naive rats distribute their body weight equally between the two hind paws. However, when the injected (left) hind paw is painful, the weight is re-distributed so that less weight is put on the affected paw (decrease in weight bearing on injured paw). Weight bearing through each hind limb was measured using a rat incapacitance tester (Linton Instruments, UK). Rats were placed in the incapacitance tester with the hind paws on separate sensors and the average force exerted by both hind limbs was recorded over 4 seconds. The injection of CFA also induces an oedema that can be assessed by paw volume; this is measured using a plethysmometer. […] Data were analysed by comparing treatment groups to the vehicle control group at each time point. Weight bearing (g) readings were taken for both right and left hind paws and the difference calculated. Data is expressed as % reversal of the hypersensitivity to pain. Paw Volume (mL) readings were taken for the left hind paws. Data are expressed as % reversal of the oedema. Calculation: (post dose reading−pre dose reading)/(naïve reading−pre dose reading)×100, where naive weight bearing difference−pre dose weight bearing difference is defined as the CFA window to be reversed. […]

[2] = test system: CFA induced hypersensitivity; assay: CFA induced hypersensitivity in rat, weight bearing (incapacitance tester); type: in vivo; settings: dosed 24 hours post CFA, 1 and 3 hours post treatment
Description: as §1, with “plethysmometer. The rat's hind paw is placed into the cylinder containing a solution and the volume of displaced liquid determines the paw volume. Naive male, Sprague Dawley rats were acclimatised with food and water available ad libitum. Habituation to the incapacitance tester was performed. Baseline weight bearing and paw volume recordings were taken prior to induction of insult. Inflammatory hypersensitivity was induced by intraplantar injection of CFA (100 μl of 1 mg/ml solution) into the left hind paw. A pre-treatment weight bearing and paw volume measurement was taken to assess hypersensitivity 23 hours post-CFA. Animals were then ranked and randomised according to CFA window in a Latin square design.” for “plethysmometer.”

- IC50 ([1]; read-out: IC50 for inhibition of human aromatic L-amino acid decarboxylase): 0.19 µM
- IC50 (human VAP-1 (SSAO)): 0.142 µM
Compound: C[C@](Cc1ccc(O)c(O)c1)(NN)C(=O)O (single isomer, unassigned) [(S)-Carbidopa]

- IC50 ([1]; did not inhibit up to the maximum concentration tested, read-out: inhibition of human aromatic L-amino acid decarboxylase (IC50)): > 3 µM
- selectivity for SSAO/VAP-1 over the enzyme DOPA decarboxylase (human VAP-1 (SSAO); comparison of VAP-1 and DOPA decarboxylase inhibition): surprising selectivity
- IC50 (human VAP-1 (SSAO)): 0.148 µM
Compound: C[C@](Cc1ccc(O)c(O)c1)(NN)C(=O)O [(R)-Carbidopa, (R)-carbidopa]
- reduction of paw volume (oedema), Part A, FIG. 2 (CFA induced paw oedema; 3-30 mg/kg alone): significant reduction of paw volume
- inhibition of the hypersensitivity response (weight bearing), Part A, FIG. 1 ([2]; 3-30 mg/kg alone): dose-dependently inhibited the hypersensitivity response

Compound: C[C@]12C=CC(=O)C=C1CC[C@@H]1[C@@H]2[C@@H](O)C[C@@]2(C)[C@H]1CC[C@]2(O)C(=O)CO [Prednisolone, prednisolone]
- inhibition of the hypersensitivity response (weight bearing), Part B, FIG. 3 ([2]; 0.3-10 mg/kg alone): dose-dependently inhibited the hypersensitivity response

Compound: COc1ccc2c(c1)c(CC(=O)O)c(C)n2C(=O)c1ccc(Cl)cc1 [Indomethacin, indomethacin]
- reduction of paw oedema (CFA induced paw oedema; indomethacin 10 mg/kg): significant reduction on paw oedema
- reversal of the hypersensitivity measured using weight bearing ([2]; indomethacin 10 mg/kg): marked reversal of the hypersensitivity
